# Experimental data from patent US20240182874A1, “NOVEL FAMILY OF DNA POLYMERASES ACCEPTING 2-AMINOADENINE AND REJECTING ADENINE IN THEIR SUBSTRATES” (THE EUROPEAN SYNDICATE OF SYNTHETIC SCIENTISTS AND …, priority 2021, published 2024).
# Tests used:
# Test in all cases: Single nucleotide extension assay, steady-state kinetics (Table 2)
# [1] = tested on: T1, Nc1nc(N)c2ncn([C@H]3C[C@H](O)[C@@H](COP(=O)(O)OP(=O)(O)OP(=O)(O)O)O3)c2n1; assay type: biochemical, Acinetobacter phage SH-Ab 15497; settings: other: 37° C., pH7, 500 nM duplex X1648/X1649, average and standard deviation of three independent assays, pH 7.0
# T1 construct: 3'-exonuclease-disabled D74A
# Source text: (§1) DpoZ genes from each bacteriophage were also cloned in the P15A plasmid pVDM18 previously described (Pezo et al., Sci Rep. 3, 1359 (2013)). Exonuclease mutants were constructed by site directed mutagenesis of pVDM18 Pol constructs using X1379/X1380 oligonucleotides for Vibrio phage PhiVC8 DNA pol (D85A mutation), X1865/X1866 for Arthrobacter phage Wayne DNA pol (D146A mutation), X1990/X1991 for Acinetobacter phage SH-Ab-15497 (D74A mutation), X1867/X1868 for Gordonia phage Ghobes DNA pol (D109A mutation) and X1601/X1602 for Klenow fragment of E. coli DNA pol I (D101A mutation). Mutations were verified by full sequencing of the constructs. These mutants were also sub-cloned into the pGEN452 vector downstream a His6-tag for protein expression
# (§2) Kinetic parameters were determined in a single nucleotide extension assay using DNA polymerase mutants devoid of 3′exonuclease activity, followed by denaturing polyacrylamide gel electrophoresis of the extended products essentially as described (O'Flaherty and Guengerich, Current Protocols in Nucleic Acid Chemistry. 59 (2014)). The fluorescent oligonucleotide X1648 was annealed to X1649 template. Duplex substrates were used at 500 nM concentration in reaction buffer (20 mM TrisHCl pH7, 200 mM NaCl, 2 mM DTT, 5 mM MgCl2), with different enzymes concentrations and various dNTPs concentrations. Reactions were performed at 37° C. for variable times in conditions to remain in the confines of the steady-state kinetic model e.g. remaining below 20% of product formation (Creighton et al., Methods in Enzymology (Elsevier, 1995; https://linkinghub.elsevier.com/retrieve/pii/0076687995620214), vol. 262, pp. 232-256).
# (§3) • The Km affinity constant and the kcat turnover number of 3′-exonuclease-disabled and His-tagged versions of DpoZ polymerases from Vibrio phage PhiVC8 and Acinetobacter phage SH-Ab 15497 are shown in comparison with PolA polymerase (Klenow fragment) from E. coli. The average and standard deviation of three independent assays carried out under the same conditions are given for each experiment.
# [2] = tested on: T2, Nc1ncnc2c1ncn2[C@H]1C[C@H](O)[C@@H](COP(=O)(O)OP(=O)(O)OP(=O)(O)O)O1; assay type: biochemical, Acinetobacter phage SH-Ab 15497; settings: other: 37° C., pH7, 500 nM duplex X1648/X1649, average and standard deviation of three independent assays, pH 7.0
# T2 construct: 3'-exonuclease-disabled D74A
# Source text: as §1, §2, §3
# [3] = tested on: T3, Nc1nc(N)c2ncn([C@H]3C[C@H](O)[C@@H](COP(=O)(O)OP(=O)(O)OP(=O)(O)O)O3)c2n1; assay type: biochemical, Vibrio phage PhiVC8; settings: other: 37° C., pH7, 500 nM duplex X1648/X1649, average and standard deviation of three independent assays, pH 7.0
# T3 construct: 3'-exonuclease-disabled D85A
# Source text: as §1, §2, §3
# [4] = tested on: T4, Nc1ncnc2c1ncn2[C@H]1C[C@H](O)[C@@H](COP(=O)(O)OP(=O)(O)OP(=O)(O)O)O1; assay type: biochemical, Vibrio phage PhiVC8; settings: other: 37° C., pH7, 500 nM duplex X1648/X1649, average and standard deviation of three independent assays, pH 7.0
# T4 construct: 3'-exonuclease-disabled D85A
# Source text: as §1, §2, §3
# [5] = target: T5, Acinetobacter phage SH-Ab 15497 DpoZ DNA polymerase (SEQ ID NO: 113), His-tagged, 3′-exonuclease-disabled mutant D74A (Acinetobacter phage SH-Ab 15497, UniProt A0A2H5BHJ5, D74A); assay type: biochemical; settings: for Efficiency: catalytic efficiency, average and standard deviation of three independent assays
# T5 construct: 3'-exonuclease-disabled D74A
# T5 sequence (A0A2H5BHJ5 1-624 D74A): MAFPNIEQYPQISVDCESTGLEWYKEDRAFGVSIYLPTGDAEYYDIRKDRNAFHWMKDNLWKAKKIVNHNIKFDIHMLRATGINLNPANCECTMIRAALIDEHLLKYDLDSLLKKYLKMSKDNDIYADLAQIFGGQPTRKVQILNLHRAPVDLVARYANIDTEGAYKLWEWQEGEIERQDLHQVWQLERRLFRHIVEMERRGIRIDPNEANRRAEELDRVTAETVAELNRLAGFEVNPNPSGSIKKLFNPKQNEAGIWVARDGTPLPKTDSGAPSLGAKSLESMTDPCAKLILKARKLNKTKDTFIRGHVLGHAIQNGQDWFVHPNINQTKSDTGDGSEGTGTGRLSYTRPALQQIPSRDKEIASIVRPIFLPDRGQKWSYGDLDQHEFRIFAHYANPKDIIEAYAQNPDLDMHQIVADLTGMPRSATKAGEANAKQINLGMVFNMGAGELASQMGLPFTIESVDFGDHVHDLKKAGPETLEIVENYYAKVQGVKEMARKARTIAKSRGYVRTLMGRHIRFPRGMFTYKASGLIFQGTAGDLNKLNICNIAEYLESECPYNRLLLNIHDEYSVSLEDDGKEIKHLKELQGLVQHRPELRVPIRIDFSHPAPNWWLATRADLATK
# Source text: as §1, §2, §3
# [6] = target: T6, E. coli PolA polymerase (Klenow fragment of E. coli DNA pol I, SEQ ID NO: 234), His-tagged, 3′-exonuclease-disabled mutant D101A (Escherichia coli, UniProt P00582, D424A); assay type: biochemical; settings: for Efficiency: catalytic efficiency, average and standard deviation of three independent assays
# T6 construct: 3'-exonuclease-disabled
# T6 sequence (P00582 with tags, fused parts or gaps D424A): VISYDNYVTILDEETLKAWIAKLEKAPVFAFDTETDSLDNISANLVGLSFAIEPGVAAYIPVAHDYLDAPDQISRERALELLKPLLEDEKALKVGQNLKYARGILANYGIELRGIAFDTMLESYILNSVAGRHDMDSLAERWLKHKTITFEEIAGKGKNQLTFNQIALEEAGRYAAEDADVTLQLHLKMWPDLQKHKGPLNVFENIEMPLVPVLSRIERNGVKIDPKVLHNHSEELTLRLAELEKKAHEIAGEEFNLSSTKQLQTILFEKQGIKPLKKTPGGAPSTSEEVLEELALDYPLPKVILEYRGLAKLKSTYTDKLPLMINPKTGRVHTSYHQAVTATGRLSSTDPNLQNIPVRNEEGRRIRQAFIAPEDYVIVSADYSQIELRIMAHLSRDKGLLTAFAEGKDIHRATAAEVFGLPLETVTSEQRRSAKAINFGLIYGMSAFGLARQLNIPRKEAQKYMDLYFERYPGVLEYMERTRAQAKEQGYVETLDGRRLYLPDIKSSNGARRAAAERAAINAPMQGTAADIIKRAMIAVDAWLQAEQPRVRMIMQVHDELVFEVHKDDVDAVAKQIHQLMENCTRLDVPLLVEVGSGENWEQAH
# Source text: as §1, §2, §3
# [7] = target: T7, Vibrio phage PhiVC8 DpoZ DNA polymerase (SEQ ID NO: 112), His-tagged, 3′-exonuclease-disabled mutant D85A (Vibrio phage phiVC8, UniProt G3FFN8, D85A); assay type: biochemical; settings: for Efficiency: catalytic efficiency, average and standard deviation of three independent assays
# T7 construct: 3'-exonuclease-disabled D85A
# T7 sequence (G3FFN8 1-633 D85A): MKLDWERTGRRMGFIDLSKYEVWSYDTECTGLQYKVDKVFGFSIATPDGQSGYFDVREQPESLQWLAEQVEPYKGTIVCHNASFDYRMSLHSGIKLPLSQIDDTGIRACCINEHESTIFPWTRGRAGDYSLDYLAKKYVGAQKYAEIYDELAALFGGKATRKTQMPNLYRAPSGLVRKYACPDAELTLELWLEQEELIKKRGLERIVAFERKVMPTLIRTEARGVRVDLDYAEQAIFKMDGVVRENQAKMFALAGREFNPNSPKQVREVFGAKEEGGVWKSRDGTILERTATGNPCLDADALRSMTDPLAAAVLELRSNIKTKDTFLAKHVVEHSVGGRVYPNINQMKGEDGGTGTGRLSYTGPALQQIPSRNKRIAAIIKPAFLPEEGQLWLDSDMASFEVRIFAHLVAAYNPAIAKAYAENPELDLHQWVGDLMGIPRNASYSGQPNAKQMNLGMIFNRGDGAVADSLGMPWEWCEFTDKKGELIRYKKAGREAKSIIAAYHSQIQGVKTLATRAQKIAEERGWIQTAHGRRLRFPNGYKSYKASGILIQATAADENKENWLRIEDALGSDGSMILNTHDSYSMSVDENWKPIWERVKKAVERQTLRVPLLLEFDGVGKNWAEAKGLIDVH
# Source text: as §1, §2, §3
compound,measurement,setting,value
"Acinetobacter phage SH-Ab 15497 DpoZ DNA polymerase (SEQ ID NO: 113), His-tagged, 3′-exonuclease-disabled mutant D74A (Acinetobacter phage SH-Ab 15497; D74A)",Km,[1],1300 ± 360 µM
same,kcat,[1],0.29 ± 0.07 s⁻¹
same,Km,[2],21400 ± 3400 µM
same,kcat,[2],0.16 ± 0.01 s⁻¹
"Vibrio phage PhiVC8 DpoZ DNA polymerase (SEQ ID NO: 112), His-tagged, 3′-exonuclease-disabled mutant D85A (Vibrio phage phiVC8; D85A)",Km,[3],100 ± 20 µM
same,kcat,[3],0.42 ± 0.14 s⁻¹
same,Km,[4],4500 ± 1380 µM
same,kcat,[4],0.21 ± 0.05 s⁻¹
"Nc1nc(N)c2ncn([C@H]3C[C@H](O)[C@@H](COP(=O)(O)OP(=O)(O)OP(=O)(O)O)O3)c2n1 [dZTP, 2-amino-2′-deoxyadenosine 5′-triphosphate]",factor in catalytic efficiency with dZTP relative to dATP,[5],29 -fold
same,Efficiency,[5],0.23 ± 0.06 mM⁻¹ s⁻¹
same,kcat^(Z)/kcat^(A),[5]; kcat dZTP / kcat dATP,1.81
same,factor in catalytic efficiency with dZTP relative to dATP,[6],0.5 -fold
same,Efficiency,[6],17.73 ± 4.96 mM⁻¹ s⁻¹
same,kcat^(Z)/kcat^(A),[6]; kcat dZTP / kcat dATP,0.68
same,factor in catalytic efficiency with dZTP relative to dATP,[7],90 -fold
same,Efficiency,[7],4.35 ± 1.56 mM⁻¹ s⁻¹
same,kcat^(Z)/kcat^(A),[7]; kcat dZTP / kcat dATP,2.00
"Nc1ncnc2c1ncn2[C@H]1C[C@H](O)[C@@H](COP(=O)(O)OP(=O)(O)OP(=O)(O)O)O1 [dATP, deoxyadenosine 5′-triphosphate]",Efficiency,[5],0.008 ± 0.001 mM⁻¹ s⁻¹
same,Efficiency,[6],30.40 ± 5.82 mM⁻¹ s⁻¹
same,Efficiency,[7],0.048 ± 0.017 mM⁻¹ s⁻¹
